From patent US9006487B2, “Amine-containing lipids and uses thereof” (Massachusetts Institute of Technology, priority 2005, dated 2015)

test system: cos-7 cells; assay: DNA transfection: luciferase expression relative to Lipofectamine 2000; type: cell-based; settings: lipid/DNA 2.5 w/w; 300 ng Luciferase DNA per well; luciferase assay after 48 hours
Procedure, shortened: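 cos-7 cells were transfected with 300 ng/well luciferase DNA complexed with lipid at ratios from 2.5 to 25 w/w. Bright-Glo luminescence was read after 48 hours and converted to ng luciferase by standard curve. Data are percent of the Lipofectamine 2000 control (2.5 w/w).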

Row | Compound | Luciferase expression as a percentage of that achieved using Lipofectamine 2000
1 | CCCCCCCCCCCCCCCOC(=O)CC[N+](C)(CCC(=O)OCCCCCCCCCCCCCCC)CC1COC(C)(C)O1.[I-] (stereo not shown) [QG7] | 0.4%
2 | CCCCCCCCCCCCCCCOC(=O)CC[N+](C)(CCC(=O)OCCCCCCCCCCCCCCC)CCC1CCC[N+]1(C)C.[I-].[I-] (stereo not shown) [QG77] | 0.5%

same assay, conditions: lipid/DNA 5 w/w; 300 ng Luciferase DNA per well; luciferase assay after 48 hours

Row | Compound | Luciferase expression as a percentage of that achieved using Lipofectamine 2000
3 | CCCCCCCCCCCCCCCOC(=O)CC[N+](C)(CCC(=O)OCCCCCCCCCCCCCCC)CC1COC(C)(C)O1.[I-] (stereo not shown) [QG7] | 0.3%
4 | CCCCCCCCCCCCCCCOC(=O)CC[N+](C)(CCC(=O)OCCCCCCCCCCCCCCC)CCC1CCC[N+]1(C)C.[I-].[I-] (stereo not shown) [QG77] | 0.6%

same assay, conditions: lipid/DNA 10 w/w; 300 ng Luciferase DNA per well; luciferase assay after 48 hours

Row | Compound | Luciferase expression as a percentage of that achieved using Lipofectamine 2000
5 | CCCCCCCCCCCCCCCOC(=O)CC[N+](C)(CCC(=O)OCCCCCCCCCCCCCCC)CC1COC(C)(C)O1.[I-] (stereo not shown) [QG7] | 0.5%
6 | CCCCCCCCCCCCCCCOC(=O)CC[N+](C)(CCC(=O)OCCCCCCCCCCCCCCC)CCC1CCC[N+]1(C)C.[I-].[I-] (stereo not shown) [QG77] | 1.5%

same assay, conditions: lipid/DNA 15 w/w; 300 ng Luciferase DNA per well; luciferase assay after 48 hours

Row | Compound | Luciferase expression as a percentage of that achieved using Lipofectamine 2000
7 | CCCCCCCCCCCCCCCOC(=O)CC[N+](C)(CCC(=O)OCCCCCCCCCCCCCCC)CC1COC(C)(C)O1.[I-] (stereo not shown) [QG7] | 0.3%
8 | CCCCCCCCCCCCCCCOC(=O)CC[N+](C)(CCC(=O)OCCCCCCCCCCCCCCC)CCC1CCC[N+]1(C)C.[I-].[I-] (stereo not shown) [QG77] | 5.6%

same assay, conditions: lipid/DNA 20 w/w; 300 ng Luciferase DNA per well; luciferase assay after 48 hours

Row | Compound | Luciferase expression as a percentage of that achieved using Lipofectamine 2000
9 | CCCCCCCCCCCCCCCOC(=O)CC[N+](C)(CCC(=O)OCCCCCCCCCCCCCCC)CC1COC(C)(C)O1.[I-] (stereo not shown) [QG7] | 0.4%
10 | CCCCCCCCCCCCCCCOC(=O)CC[N+](C)(CCC(=O)OCCCCCCCCCCCCCCC)CCC1CCC[N+]1(C)C.[I-].[I-] (stereo not shown) [QG77] | 18.8%

same assay, conditions: lipid/DNA 25 w/w; 300 ng Luciferase DNA per well; luciferase assay after 48 hours

Row | Compound | Luciferase expression as a percentage of that achieved using Lipofectamine 2000
11 | CCCCCCCCCCCCCCCOC(=O)CC[N+](C)(CCC(=O)OCCCCCCCCCCCCCCC)CC1COC(C)(C)O1.[I-] (stereo not shown) [QG7] | 0.3%
12 | CCCCCCCCCCCCCCCOC(=O)CC[N+](C)(CCC(=O)OCCCCCCCCCCCCCCC)CCC1CCC[N+]1(C)C.[I-].[I-] (stereo not shown) [QG77] | 29.5%

test system: not listed separately; assay: DNA delivery: raw luciferase expression (relative light units) of best-transfecting lipids; type: cell-based; settings: lipid/DNA 2.5 w/w; 300 ng of DNA per well
Protocol: Raw values for luciferase expression (relative lights units) of best-transfecting lipids at lipid/DNA (w/w) ratios listed. 300 ng of DNA was added per well.

Row | Raw values for luciferase expression | Compound
13 | 774425 relative lights units | CCCCCCCCCCCCNC(=O)CCN(CCC(=O)NCCCCCCCCCCCC)CCc1c[nH]cn1 [ND94]
14 | 2910700 relative lights units | CCCCCCCCCCCCNC(=O)CCN(C)CCCN(CCC(=O)NCCCCCCCCCCCC)CCC(=O)NCCCCCCCCCCCC [ND96]
15 | 2197484 relative lights units | CCCCCCCCCCCCNC(=O)CCN(CCO)CCN(CCC(=O)NCCCCCCCCCCCC)CCC(=O)NCCCCCCCCCCCC [ND109]
16 | 778473 relative lights units | CCCCCCCCCCCCCCNC(=O)CCN(CCCOC)CCC(=O)NCCCCCCCCCCCCCC [NF1]
17 | 1192178 relative lights units | CCCCCCCCCCCCCCNC(=O)CCN(CCOC)CCC(=O)NCCCCCCCCCCCCCC [NF10]

same assay, conditions: lipid/DNA 5 w/w; 300 ng of DNA per well

Row | Raw values for luciferase expression | Compound
18 | 1382667 relative lights units | CCCCCCCCCCCCNC(=O)CCN(CCC(=O)NCCCCCCCCCCCC)CCc1c[nH]cn1 [ND94]
19 | 42837 relative lights units | CCCCCCCCCCCCNC(=O)CCN(C)CCCN(CCC(=O)NCCCCCCCCCCCC)CCC(=O)NCCCCCCCCCCCC [ND96]
20 | 2087995 relative lights units | CCCCCCCCCCCCNC(=O)CCN(CCO)CCN(CCC(=O)NCCCCCCCCCCCC)CCC(=O)NCCCCCCCCCCCC [ND109]
21 | 227587 relative lights units | CCCCCCCCCCCCCCNC(=O)CCN(CCCOC)CCC(=O)NCCCCCCCCCCCCCC [NF1]
22 | 838283 relative lights units | CCCCCCCCCCCCCCNC(=O)CCN(CCOC)CCC(=O)NCCCCCCCCCCCCCC [NF10]
